Measurements: patent US20170231910A1, “PHARMACEUTICAL FORMULATIONS OF CHELATING AGENTS AS A METAL REMOVAL TREATMENT SYSTEM” (ZONEONE PHARMA, INC., priority 2014, published 2017)
Counter-ions that a name gives are not always drawn.

Legend:
[1] = PK of DFO in plasma of mice after liposomal DFO or Desferal; format: in vivo, CF-1 female mice; conditions: 100 mg/kg
Description: Liposomes containing egg PC/Chol (3 mol/2 mol, LDFO-1), egg PC/DOPG/Chol (2.7 mol/0.3 mol/2 mol, LDFO-2), and HSPC/Chol (3 mol/2 mol, LDFO-4) containing 500 mM ammonium sulfate were prepared as in Example 1. DFO was remote loaded as in Example 20.
After loading the liposomes were purified by dialysis versus HBS pH 6.5. The liposomes were sterilized by filtration through 0.2 um PES filters and analyzed for drug and lipid content. The liposomal DFO were administered to CF-1 female mice at 100 mg/kg (n=3) and at various times the animals were sacrificed and blood taken.
After processing to plasma, DFO was extracted from plasma by mixing with 6 volumes of methanol containing 0.1% trifluoroacetic acid in an eppendorf tube. The mixtures were vortexed twice for 10 seconds then placed at −80° C. for 1 h. The samples were thawed and centrifuged for 12,000 rpm for 10 min at 4° C. and the supernatant analyzed for DFO by HPLC as described herein. […] By comparison DFO was undetectable beyond 1 h after dosing with Desferal®.

[2] = tested on: Iron Overloaded Mouse Model; assay: Liver iron removal from iron overloaded mouse model (ferrozine assay); format: in vivo; conditions: iron-dextran overloaded mice, IV 100 mg/kg chelator on day 7 and day 10
Description: LDFO formulations were prepared as described in Example 1. Both formulations were composed of HSPC/cholesterol (3/0.5 (mol/mol)). One formulation was prepared using 250 mM ammonium sulfate (LDFO-AS) as the trapping agent and the second formulation was prepared using 250 mM ascorbate phosphate (LDFO-AP) as the trapping agent and all other components and DFO loading procedures of the formulations were identical. Mice were overloaded with a single IV injection of iron-dextran at 100 mg/kg Fe. Overloaded mice were treated with each formulation IV at 100 mg/kg chelator on day 7 and day 10. The mice were sacrificed after the second treatment and the livers were analyzed for iron content using a ferrozine assay (Riemer et al. 2004)

Compound: CC(=O)N(O)CCCCCNC(=O)CCC(=O)N(O)CCCCCNC(=O)CCC(=O)N(O)CCCCCN [Desferal, deferoxamine mesylate]
- DFO in plasma after dosing ([1]; beyond 1 h after dosing): undetectable
- initial dose (ID) of DFO retained in the plasma at 24 h ([1]; IV, 24 h): undetectable
- mean liver iron content after treating [2]: 229 mg/kg
